Experimental data published in patent US20240409585A1, “MACROCYCLIC IMMUNOMODULATORS” (priority 2021, published 2024).
Bridge positions count the residues as written; N and C are the ends. Square brackets hold non-standard residues; d marks the D form. Peptide text beside a SMILES is read from it. * marks the point of attachment. ξ: configuration not given here. Bip(4'-NHAc) = CC(=O)Nc1ccc(-c2ccc(C[C@H](N)C(=O)O)cc2)cc1; Phe(4-COOH) = N[C@@H](Cc1ccc(C(=O)O)cc1)C(=O)O; Phe(4-CH2NH2) = NCc1ccc(C[C@H](N)C(=O)O)cc1; Bip = N[C@@H](Cc1ccc(-c2ccccc2)cc1)C(=O)O; Phe(3-Me) = Cc1cccc(C[C@H](N)C(=O)O)c1; Bta = N[C@@H](Cc1csc2ccccc12)C(=O)O; Val(3-OH) = CC(C)(O)[C@H](N)C(=O)O; 3Pal = N[C@@H](Cc1cccnc1)C(=O)O; 4Pal = N[C@@H](Cc1ccncc1)C(=O)O; Cha = N[C@@H](CC1CCCCC1)C(=O)O; Cit = NC(=O)NCCC[C@H](N)C(=O)O; Ile(3ξ) = CCC(C)[C@H](N)C(=O)O; Thr(3ξ) = CC(O)[C@H](N)C(=O)O; ξCha = NC(CC1CCCCC1)C(=O)O; Pip = O=C(O)[C@@H]1CCCCN1; Carboxymethyl = O=C(O)C*; NMeA = CN[C@@H](C)C(=O)O; Orn = NCCC[C@H](N)C(=O)O; Pra = C#CC[C@H](N)C(=O)O; Dab = NCC[C@H](N)C(=O)O; Dap = NC[C@H](N)C(=O)O; Piv = CC(C)(C)C(=O)*

Target: T1, PE-labeled human PD-L1-Ig binding to Jurkat cell line over-expressing human PD-1 (Jurkat-PD-1) (Homo sapiens, UniProt Q15116)
T1 construct: expressed in transfected cells; host or cells: Jurkat
Assay: Jurkat-PD-1 Cell Binding High-Content Screening Assay (CBA): Method 1
Settings: Jurkat-PD-1 cells, PE-labeled PD-L1-Ig; μM; read-out: CBA Method 1 μM

T1 sequence (Q15116 25-288): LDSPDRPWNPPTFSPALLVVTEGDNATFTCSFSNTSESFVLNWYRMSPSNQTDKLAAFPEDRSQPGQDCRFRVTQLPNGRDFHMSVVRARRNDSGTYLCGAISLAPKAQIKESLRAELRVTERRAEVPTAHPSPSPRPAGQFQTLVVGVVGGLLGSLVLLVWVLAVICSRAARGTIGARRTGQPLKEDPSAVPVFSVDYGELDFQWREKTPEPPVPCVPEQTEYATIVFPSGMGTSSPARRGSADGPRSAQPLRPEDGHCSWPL

SMILES | IC50 [µM]
CCC(C)[C@@H]1NC(=O)[C@H](Cc2ccc(-c3ccccc3)cc2)NC(=O)[C@H](C(C)C)NC(=O)[C@H](Cc2c[nH]c3ccccc23)NC(=O)[C@H](CC(=O)O)NC(=O)[C@H](Cc2ccc(OCC(=O)O)cc2)NC(=O)[C@H](C(C)O)NC(=O)CSC[C@@H](C(=O)N[C@@H](CO)C(=O)NCC(=O)N[C@@H](CO)C(N)=O)NC(=O)[C@H](C(C)O)NC(=O)[C@H](C(C)C)NC(=O)C(CC2CCCCC2)NC(=O)[C@H](CCN)NC(=O)[C@@H](CC(C)C)NC(=O)[C@H](C)N(C)C1=O (stereo partly drawn) [Example 5003] ({CH2CO}-[Thr(3ξ)]Y(Carboxymethyl)DWV[Bip][Ile(3ξ)][NMeA][dL][Dab][ξCha]V[Thr(3ξ)]CSGS-NH2; thioether N-14) | 0.03

Same assay, conditions: Jurkat-hPD-1 cells, PE-labeled PD-L1-Ig 20 nM final; read-out: Jurkat HPDL1 PD1 IC50 (uM) (Method 1)

SMILES | IC50 [µM]
Cc1cccc(C[C@@H]2NC(=O)[C@H](CC(=O)O)NC(=O)[C@H](Cc3ccc(OCC(=O)O)cc3)NC(=O)[C@H](CN)NC(=O)CSC[C@@H](C(=O)N[C@@H](CCNC(=O)C(C)(C)C)C(N)=O)NC(=O)[C@H]([C@@H](C)O)NC(=O)[C@H](C(C)C)NC(=O)[C@H](CC3CCCCC3)NC(=O)[C@H](CCN)NC(=O)[C@@H](CC(C)C)NC(=O)[C@H](C)N(C)C(=O)[C@H](Cc3ccc(OCC(=O)O)cc3)NC(=O)[C@H](Cc3ccc(-c4ccccc4)cc3)NC(=O)[C@H](Cc3ccc(OCC(=O)O)cc3)NC2=O)c1 [Compound 1866] ({CH2CO}-[Dap]Y(Carboxymethyl)D[Phe(3-Me)]Y(Carboxymethyl)[Bip]Y(Carboxymethyl)[NMeA][dL][Dab][Cha]VTC[Dab](Piv)-NH2; thioether N-14) | 0.05
CC(C)C[C@@H]1NC(=O)[C@H](CCN)NC(=O)[C@@H](CC(C)C)NC(=O)[C@H](C)N(C)C(=O)[C@H](CCCNC(=N)N)NC(=O)[C@H](Cc2ccc(-c3ccccc3)cc2)NC(=O)[C@H](C(C)C)NC(=O)[C@H](Cc2c[nH]c3ccccc23)NC(=O)[C@H](CC(=O)O)NC(=O)[C@H](Cc2cnc[nH]2)NC(=O)[C@H](CC(N)=O)NC(=O)CSC[C@@H](C(=O)N[C@@H](C)C(N)=O)NC(=O)[C@H]([C@@H](C)O)NC(=O)[C@H](C(C)C)NC1=O [Compound 1137] ({CH2CO}-NHDWV[Bip]R[NMeA][dL][Dab]LVTCA-NH2; thioether N-14) | 0.27
CC(C)C[C@@H]1NC(=O)[C@H](CCN)NC(=O)[C@@H](CC(C)C)NC(=O)[C@H](C)N(C)C(=O)[C@H](CCCNC(=N)N)NC(=O)[C@H](Cc2ccc(-c3ccccc3)cc2)NC(=O)[C@H](C(C)C)NC(=O)[C@H](Cc2c[nH]c3ccccc23)NC(=O)[C@H](CC(=O)O)NC(=O)[C@H](Cc2ccncc2)NC(=O)[C@H](CC(N)=O)NC(=O)CSC[C@@H](C(=O)N[C@@H](C)C(N)=O)NC(=O)[C@H]([C@@H](C)O)NC(=O)[C@H](C(C)C)NC1=O [Compound 1146] ({CH2CO}-N[4Pal]DWV[Bip]R[NMeA][dL][Dab]LVTCA-NH2; thioether N-14) | 0.06
C#CC[C@H](NC(=O)[C@@H](C)NC(=O)[C@@H]1CSCC(=O)N[C@@H]([C@@H](C)O)C(=O)N[C@@H](Cc2ccc(C(=O)O)cc2)C(=O)N[C@@H](CC(=O)O)C(=O)N[C@@H](Cc2cccc(C)c2)C(=O)N[C@@H](Cc2ccc(C(=O)O)cc2)C(=O)N[C@@H](Cc2ccc(-c3ccccc3)cc2)C(=O)N[C@@H](Cc2ccc(OCC(=O)O)cc2)C(=O)N(C)[C@@H](C)C(=O)N[C@H](CC(C)C)C(=O)N[C@@H](CCN)C(=O)N[C@@H](CC2CCCCC2)C(=O)N[C@@H](C(C)(C)O)C(=O)N[C@@H](CCC(=O)O)C(=O)N1)C(N)=O [Compound 1947] ({CH2CO}-T[Phe(4-COOH)]D[Phe(3-Me)][Phe(4-COOH)][Bip]Y(Carboxymethyl)[NMeA][dL][Dab][Cha][Val(3-OH)]EC[dA][Pra]-NH2; thioether N-14) | 0.43
CC(C)C[C@@H]1NC(=O)[C@H](CCN)NC(=O)[C@@H](CC(C)C)NC(=O)[C@H](C)N(C)C(=O)[C@H](CO)NC(=O)[C@H](Cc2ccc(-c3ccccc3)cc2)NC(=O)[C@H](C(C)C)NC(=O)[C@H](Cc2c[nH]c3ccccc23)NC(=O)[C@H](CC(=O)O)NC(=O)[C@H](Cc2ccc(O)cc2)NC(=O)[C@H](CC(N)=O)NC(=O)CSC[C@@H](C(=O)N[C@@H](C)C(N)=O)NC(=O)[C@H]([C@@H](C)O)NC(=O)[C@H](C(C)C)NC1=O [Compound 1261] ({CH2CO}-NYDWV[Bip]S[NMeA][dL][Dab]LVTCA-NH2; thioether N-14) | 0.08
CC(C)C[C@@H]1NC(=O)[C@H](CCN)NC(=O)[C@@H](CC(C)C)NC(=O)[C@H](C)N(C)C(=O)[C@H](CCCNC(N)=O)NC(=O)[C@H](Cc2ccc(-c3ccccc3)cc2)NC(=O)[C@H](C(C)C)NC(=O)[C@H](Cc2c[nH]c3ccccc23)NC(=O)[C@H](CC(=O)O)NC(=O)[C@H](Cc2ccc(OCC(=O)O)cc2)NC(=O)[C@H](CN)NC(=O)CSC[C@@H](C(=O)N[C@@H](C)C(N)=O)NC(=O)[C@H]([C@@H](C)O)NC(=O)[C@H](C(C)C)NC1=O [Compound 1566] ({CH2CO}-[Dap]Y(Carboxymethyl)DWV[Bip][Cit][NMeA][dL][Dab]LVTCA-NH2; thioether N-14) | 0.04
CC(C)C[C@@H]1NC(=O)[C@H](CCCNC(=N)N)NC(=O)[C@H](Cc2csc3ccccc23)NC(=O)[C@H](C)N(C)C(=O)[C@H](CCCNC(=N)N)NC(=O)[C@H](Cc2ccc(-c3ccccc3)cc2)NC(=O)[C@H](C(C)C)NC(=O)[C@H](Cc2c[nH]c3ccccc23)NC(=O)[C@H](CC(=O)O)NC(=O)[C@H](Cc2ccc(O)cc2)NC(=O)[C@H](CCC(N)=O)NC(=O)CSC[C@@H](C(=O)NCC(N)=O)NC(=O)[C@H](CO)NC(=O)[C@H](C(C)C)NC1=O [Compound 1028] ({CH2CO}-QYDWV[Bip]R[NMeA][Bta]RLVSCG-NH2; thioether N-14) | 0.11
CCC(C)[C@@H]1NC(=O)[C@H](Cc2ccc(-c3ccccc3)cc2)NC(=O)[C@H](C(C)C)NC(=O)[C@H](Cc2c[nH]c3ccccc23)NC(=O)[C@H](CC(=O)O)NC(=O)[C@H](Cc2ccc(O)cc2)NC(=O)[C@H](Cc2ccc(CN)cc2)NC(=O)CSC[C@@H](C(=O)N[C@@H](C)C(N)=O)NC(=O)[C@H](C(C)O)NC(=O)[C@H](C(C)C)NC(=O)[C@H](CC2CCCCC2)NC(=O)[C@H](CCN)NC(=O)[C@@H](CC(C)C)NC(=O)[C@H](C)N(C)C1=O (stereo partly drawn) [Compound 2062] ({CH2CO}-[Phe(4-CH2NH2)]YDWV[Bip][Ile(3ξ)][NMeA][dL][Dab][Cha]V[Thr(3ξ)]CA-NH2; thioether N-14) | 0.02
CC(C)C[C@@H]1NC(=O)[C@H](Cc2c[nH]c3ccccc23)NC(=O)[C@H](CC(=O)O)NC(=O)[C@H](Cc2ccc(O)cc2)NC(=O)[C@H](Cc2cnc[nH]2)NC(=O)CSC[C@@H](C(=O)N[C@@H](C)C(N)=O)NC(=O)[C@H](CO)NC(=O)[C@H](C(C)C)NC(=O)[C@H](CC(C)C)NC(=O)[C@H](CC(N)=O)NC(=O)[C@@H](C)NC(=O)[C@H](C)N(C)C(=O)[C@H](C(C)C)NC(=O)[C@H](Cc2ccc(-c3ccccc3)cc2)NC1=O [Compound 1736] ({CH2CO}-HYDWL[Bip]V[NMeA][dA]NLVSCA-NH2; thioether N-14) | 0.02
CC(C)C[C@@H]1NC(=O)[C@H](CCN)NC(=O)[C@@H](CC(C)C)NC(=O)[C@H](C)N(C)C(=O)[C@H](Cc2cnc[nH]2)NC(=O)[C@H](Cc2ccc(-c3ccccc3)cc2)NC(=O)[C@H](C(C)C)NC(=O)[C@H](Cc2c[nH]c3ccccc23)NC(=O)[C@H](CC(=O)O)NC(=O)[C@H](Cc2ccc(O)cc2)NC(=O)[C@H](Cc2cccnc2)NC(=O)CSC[C@@H](C(=O)N[C@@H](C)C(N)=O)NC(=O)[C@H]([C@@H](C)O)NC(=O)[C@H](C(C)C)NC1=O [Compound 1374] ({CH2CO}-[3Pal]YDWV[Bip]H[NMeA][dL][Dab]LVTCA-NH2; thioether N-14) | 0.04
CC(C)C[C@@H]1NC(=O)[C@H](CCCN)NC(=O)[C@@H](CC(C)C)NC(=O)[C@H](C)N(C)C(=O)[C@H](CCC(=O)O)NC(=O)[C@H](Cc2ccc(-c3ccccc3)cc2)NC(=O)[C@H](C(C)C)NC(=O)[C@H](Cc2c[nH]c3ccccc23)NC(=O)[C@H](CC(=O)O)NC(=O)[C@H](Cc2ccc(O)cc2)NC(=O)[C@H](CC(N)=O)NC(=O)CSC[C@@H](C(=O)N[C@@H](C)C(N)=O)NC(=O)[C@H]([C@@H](C)O)NC(=O)[C@H](C(C)C)NC1=O [Compound 1239] ({CH2CO}-NYDWV[Bip]E[NMeA][dL][Orn]LVTCA-NH2; thioether N-14) | 0.08
Cc1cccc(C[C@@H]2NC(=O)[C@H](CC(=O)O)NC(=O)[C@H](Cc3ccc(OCC(=O)O)cc3)NC(=O)[C@H](Cc3ccncc3)NC(=O)CSC[C@@H](C(=O)N[C@@H](CCN)C(N)=O)NC(=O)[C@H](CC(=O)O)NC(=O)[C@H](C(C)(C)O)NC(=O)[C@H](CC3CCCCC3)NC(=O)[C@H](CCN)NC(=O)[C@@H](CC(C)C)NC(=O)[C@H](C)N(C)C(=O)[C@H](Cc3ccc(OCC(=O)O)cc3)NC(=O)[C@H](Cc3ccc(-c4ccccc4)cc3)NC(=O)[C@H](Cc3ccc(OCC(=O)O)cc3)NC2=O)c1 [Compound 2190] ({CH2CO}-[4Pal]Y(Carboxymethyl)D[Phe(3-Me)]Y(Carboxymethyl)[Bip]Y(Carboxymethyl)[NMeA][dL][Dab][Cha][Val(3-OH)]DC[Dab]-NH2; thioether N-14) | 0.03
CC(=O)Nc1ccc(-c2ccc(C[C@@H]3NC(=O)[C@H](C(C)C)NC(=O)[C@H](Cc4c[nH]c5ccccc45)NC(=O)[C@H](CC(=O)O)NC(=O)[C@H](Cc4ccc(O)cc4)NC(=O)[C@H](Cc4ccccc4)NC(=O)CSC[C@@H](C(=O)N[C@@H](C)C(N)=O)NC(=O)[C@H]([C@@H](C)O)NC(=O)[C@H](C(C)C)NC(=O)[C@H](CC(C)C)NC(=O)[C@H](CCCNC(=N)N)NC(=O)[C@@H](CC(C)C)NC(=O)[C@H](C)N(C)C(=O)[C@H](CCCNC(=N)N)NC3=O)cc2)cc1 [Compound 1067] ({CH2CO}-FYDWV[Bip(4'-NHAc)]R[NMeA][dL]RLVTCA-NH2; thioether N-14) | 0.12
CC(C)C[C@@H]1NC(=O)[C@H](CCN)NC(=O)[C@@H](CC(C)C)NC(=O)[C@@H]2CCCCN2C(=O)[C@H](CCCNC(N)=O)NC(=O)[C@H](Cc2ccc(-c3ccccc3)cc2)NC(=O)[C@H](C(C)C)NC(=O)[C@H](Cc2c[nH]c3ccccc23)NC(=O)[C@H](CC(=O)O)NC(=O)[C@H](Cc2ccc(O)cc2)NC(=O)[C@H](CC(N)=O)NC(=O)CSC[C@@H](C(=O)N[C@@H](C)C(N)=O)NC(=O)[C@H]([C@@H](C)O)NC(=O)[C@H](C(C)C)NC1=O [Compound 1382] ({CH2CO}-NYDWV[Bip][Cit][Pip][dL][Dab]LVTCA-NH2; thioether N-14) | 0.08
